Like-named read-outs stand apart in the source and are kept apart here.
Assays:
L1210/TK^− = assay: Cytostatic assay, thymidine kinase-deficient L1210/TK^− cells; format: cell-based, murine; settings: for IC50: Table 6, read-out: IC50 L1210/TK^−
L1210/0 = assay: Cytostatic assay, L1210/0 cells; format: cell-based, murine; settings: for IC50: read-out: IC50 L1210/0
Excerpt: (§1) The cell lines employed were L1210/0 (a leukemia cell line), FM3A/0 (a breast cancer cell line), Cem/0 (an acute lymphoblastic leukemia cell line) and HeLa (a cervical cell line).

HeLa = assay: Cytostatic assay, HeLa cells; format: cell-based; settings: for IC50: Table 6, read-out: IC50 HeLa
Excerpt: as §1

L1210.Hyor = assay: Cytostatic assay, Mycoplasma hyorhinis-infected L1210 cells
Excerpt: Murine leukaemia L1210/0 and human T-lymphocyte CEM/0 cells were obtained from the American Type Culture Collection (ATCC) (Rockville, Md.). Human glioblastoma U87 cells were kindly provided by Dr. E. Menue (Institut Pasteur, Paris, France). […] S. Eriksson (currently at Uppsala University, Uppsala, Sweden) and Prof A. Karlsson (Karolinska Institute, Stockholm, Sweden). […] All cells were maintained in Dulbecco's modified Eagle's medium (DMEM) (Invitrogen, Carlsbad, Calif.) with 10% foetal bovine serum (FBS) (Biochrom AG, Berlin, Germany), 10 mM Hepes and 1 mM Sodium Pyruvate (Invitrogen). Cells were grown at 37° C. in a humidified incubator with a gas phase of 5% CO2.
Monolayer cells (U87 and U87.Hyor) were seeded in 48-well microtiter plates (Nunc™, Roskilde, Denmark) at 10,000 cells/well. After 24 hours, an equal volume of fresh medium containing the test compounds was added. On day 5, cells were trypsinized and counted in a Coulter counter (Analis, Suarlée, Belgium). Suspension cells (L1210/0, L1210/TK^−, L1210.Hyor, CEM/0, CEM/TK^−) were seeded in 96-well microtiter plates (Nunc™) at 60,000 cells/well in the presence of a given amount of the test compounds. The cells were allowed to proliferate for 48 h (L1210) or 72 hours (CEM) and were then counted in a Coulter counter.
Samples were also assayed for their % retention of activity in mycoplasma infected cells.
The L1210/0 cell cultures were infected with the mycoplasma species M. hyorhinis (cells designated: L1210.Hyor).

Cem/0 = assay: Cytostatic assay, CEM/0 cells; format: cell-based, human; settings: for IC50: Table 6, read-out: IC50 Cem/0
Excerpt: as §1

HeLa/TK^− = assay: Cytostatic assay, HeLa/TK^− cells; format: cell-based; settings: for IC50: Table 6, read-out: IC50 HeLa/TK^−
Excerpt: as §1

Cem/TK^− = assay: Cytostatic assay, thymidine kinase-deficient CEM/TK^− cells; format: cell-based, human; settings: for IC50: Table 6, read-out: IC50 Cem/TK^−
[1] = Mus musculus, L1210, read-out: IC50 L1210.Hyor
[2] = read-out: IC50 L1210.Hyor, Table 7

| Structure (SMILES) | IC50(L1210.Hyor)/IC50(L1210/0) (L1210.Hyor; Table 7) | IC50 (L1210/TK^−) | IC50 (L1210/0; Table 6) | IC50 (L1210/0; Table 7) | IC50 (HeLa) | IC50 (L1210.Hyor; [2]) | IC50 (Cem/0) | IC50 (HeLa/TK^−) | IC50 (Cem/TK^−) | other results |
| --- | --- | --- | --- | --- | --- | --- | --- | --- | --- | --- |
| C[C@H](NP(=O)(OC[C@H]1O[C@@H](n2cc(F)c(=O)[nH]c2=O)CC1O)Oc1cccc2ccccc12)C(=O)OCC(C)(C)C (stereo partly drawn) [CPF 588, 5-Fluoro-2′-deoxyuridine-5′-O-[1-naphthyl-(2,2-dimethylpropoxy-L-alaninyl)] phosphate] | 1.9 |  |  |  |  |  |  |  |  | CC50 (L1210/TK^−; Mus musculus, L1210, Table 1, read-out: CC50 L1210/TK^−): 1200 ± 700 nM; IC50 (L1210/TK^−; Mus musculus, L1210): 1200 ± 700 nM; CC50 (L1210/0; Mus musculus, L1210/0, Table 1, read-out: CC50 L1210/0): 270 ± 110 nM; CC50 (L1210/0; Mus musculus, L1210/0, Table 2, mycoplasma negative cells, read-out: CC50 L1210): 237 nM; IC50 (L1210/0; Mus musculus, L1210/0, Table 6): 270 ± 110 nM; IC50 (L1210/0; Mus musculus, L1210/0, Table 7): 93 ± 33 nM; CC50 (HeLa; Homo sapiens, HeLa, Table 1, read-out: CC50 HeLa): 700 ± 110 nM; IC50 (HeLa; Homo sapiens, HeLa): 700 ± 110 nM; % Retention (L1210.Hyor; CC50 L1210 × 100 ÷ CC50 L1210/Hyor): 61%; CC50 (L1210.Hyor; Mus musculus, L1210, read-out: CC50 L1210/Hyor): 390 nM; IC50 (L1210.Hyor; [1]): 180 ± 69 nM; CC50 (Cem/0; Homo sapiens, CCRF-CEM, Table 1, read-out: CC50 Cem/0): 490 ± 50 nM; IC50 (Cem/0; Homo sapiens, CCRF-CEM): 490 ± 50 nM; CC50 (HeLa/TK^−; Homo sapiens, HeLa, Table 1, read-out: CC50 HeLa/TK^−): 32000 ± 26000 nM; IC50 (HeLa/TK^−; Homo sapiens, HeLa): 32000 ± 26000 nM; CC50 (Cem/TK^−; Homo sapiens, CEM-TK(-), Table 1, read-out: CC50 Cem/TK^−): 6700 ± 1000 nM; IC50 (Cem/TK^−; Homo sapiens, CEM-TK(-)): 6700 ± 1000 nM |
| CCCCCOC(=O)C(Cc1ccccc1)NP(=O)(OCC1OC(n2cc(F)c(=O)[nH]c2=O)CC1O)Oc1cccc2ccccc12 (mixture of isomers) [Nap Pnt Phe] | 4.67 | 2900 ± 1200 nM | 26 ± 1 nM | 30 ± 3.9 nM | 40 nM | 140 ± 7 nM | 100 nM | 6600 ± 500 nM | 8300 ± 1000 nM |  |
| CCOC(=O)C(NP(=O)(OCC1OC(n2cc(F)c(=O)[nH]c2=O)CC1O)Oc1ccccc1)C(C)C (stereo not drawn) [Ph Et Val] | 22 | 42000 ± 2000 nM | 160 ± 50 nM | 200 ± 33 nM | 1200 ± 300 nM | 4400 ± 1100 nM | 1000 ± 100 nM | 27000 ± 7000 nM | > 250000 nM |  |
| C[C@H](NP(=O)(OC[C@H]1O[C@@H](n2cc(F)c(=O)[nH]c2=O)CC1O)Oc1cccc2ccccc12)C(=O)OC1Cc2ccccc2C1 (stereo partly drawn) [CPF597, 5-Fluoro-2′-deoxyuridine-5′-O-[1-naphthyl-(2-indanoxy-L-alaninyl)]phosphate] | 1.08 |  |  |  |  |  |  |  |  | IC50 (L1210/TK^−; Mus musculus, L1210): 40000 nM; IC50 (L1210/0; Mus musculus, L1210/0, Table 6): 21 ± 2 nM; IC50 (L1210/0; Mus musculus, L1210/0, Table 7): 39 ± 19 nM; IC50 (HeLa; Homo sapiens, HeLa): 100 ± 60 nM; IC50 (L1210.Hyor; [1]): 42 ± 40 nM; IC50 (Cem/0; Homo sapiens, CCRF-CEM): 79 ± 18 nM; IC50 (HeLa/TK^−; Homo sapiens, HeLa): 7100 ± 2100 nM; IC50 (Cem/TK^−; Homo sapiens, CEM-TK(-)): 1000 ± 200 nM |
| CSCCC(NP(=O)(OCC1OC(n2cc(F)c(=O)[nH]c2=O)CC1O)Oc1cccc2ccccc12)C(=O)OCc1ccccc1 (stereo not drawn) [Nap Bn Met] | 3.7 | 1900 ± 200 nM | 72 ± 1 nM | 54 ± 13 nM | 87 ± 17 nM | 200 ± 98 nM | 190 ± 100 nM | 8300 nM | 11000 ± 1000 nM |  |
| CCCCCOC(=O)C(CCSC)NP(=O)(OCC1OC(n2cc(F)c(=O)[nH]c2=O)CC1O)Oc1ccccc1 (stereo not drawn) [Ph Pnt Met] | 3.2 | 2200 ± 500 nM | 110 ± 60 nM | 130 ± 7.8 nM | 150 nM | 410 ± 210 nM | 350 ± 130 nM | 7100 ± 1200 nM | 13000 ± 1000 nM |  |
| CCCOC(=O)C(C)NP(=O)(OCC1OC(n2cc(F)c(=O)[nH]c2=O)CC1O)Oc1cccc2ccccc12 (stereo not drawn) [Nap Pr Ala] | 1.2 | 160 ± 70 nM | 21 ± 12 nM | 30 ± 0.35 nM | 110 ± 30 nM | 36 ± 6.4 nM | 140 ± 10 nM | 2500 ± 100 nM | 1100 ± 200 nM |  |

— patent US10993957B2 (NuCana plc, priority 2011, dated 2021)
